pIC50: −log10 of the molar value. The source made the active and inactive calls. The calls are words filed in the database; no cut-off is given here.
Legend:
[1] = biological target: T1, Tyrosine-protein phosphatase non-receptor type 1 (Homo sapiens) (UniProt P18031); assay: Inhibition of human recombinant PTP1B assessed as reduction in pNPP substrate hydrolysis at 30 uM incubated for 30 mins
T1 sequence (whole entry): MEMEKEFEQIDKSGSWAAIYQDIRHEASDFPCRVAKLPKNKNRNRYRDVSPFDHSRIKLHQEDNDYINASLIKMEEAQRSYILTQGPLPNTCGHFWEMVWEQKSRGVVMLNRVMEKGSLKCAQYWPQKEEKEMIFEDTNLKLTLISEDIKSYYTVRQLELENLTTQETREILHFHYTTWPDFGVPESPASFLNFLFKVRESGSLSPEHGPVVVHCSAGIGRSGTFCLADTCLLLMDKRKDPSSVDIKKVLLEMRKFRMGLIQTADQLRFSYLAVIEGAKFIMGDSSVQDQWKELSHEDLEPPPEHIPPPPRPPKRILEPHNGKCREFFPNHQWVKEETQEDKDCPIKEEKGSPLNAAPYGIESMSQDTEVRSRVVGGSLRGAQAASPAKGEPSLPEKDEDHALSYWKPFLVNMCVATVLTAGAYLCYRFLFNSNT

BV-2 [2] = assay: Inhibition of LPS-induced nitric oxide production in mouse BV2 cells pre-treated for 3 hrs before LPS stimulation by ELISA based Griess assay; format: functional, cell-based
RAW264.7 [3] = assay: Inhibition of LPS-induced nitric oxide production in mouse RAW264.7 cells pre-treated for 3 hrs before LPS stimulation by ELISA based Griess assay; format: functional, cell-based
RAW264.7 [4] = assay: Inhibition of LPS-induced PGE2 production in mouse RAW264.7 cells pre-treated for 3 hrs before LPS stimulation for 24 hrs by ELISA; format: functional, cell-based
BV-2 [5] = assay: Inhibition of LPS-induced COX2 protein expression in mouse BV2 cells pre-treated for 1 hr before LPS stimulation for 18 hrs by Western blot method; format: functional, cell-based
[6] = Effect on beta-actin protein expression in LPS-induced mouse BV2 cells pre-treated for 1 hr before LPS stimulation for 18 hrs by Western blot method; format: ADME, cell-based; details: bv-2, 18 h
BV-2 [7] = assay: Inhibition of LPS-induced IL-1beta production in mouse BV2 cells pre-treated for 3 hrs before LPS stimulation for 24 hrs by ELISA; format: functional, cell-based
[8] = biological target: T2, Tyrosine-protein phosphatase non-receptor type 1 (Homo sapiens, UniProt P18031); assay: Inhibition of human recombinant PTP1B assessed as reduction in pNPP substrate hydrolysis incubated for 30 mins
T2 sequence (P18031 whole entry): T1 sequence (whole entry)

RAW264.7 [9] = assay: Effect on beta-actin protein expression in LPS-induced mouse RAW264.7 cells pre-treated for 1 hr before LPS stimulation for 18 hrs by Western blot method; format: ADME, cell-based; details: raw264.7, 18 h
RAW264.7 [10] = assay: Inhibition of LPS-induced COX2 protein expression in mouse RAW264.7 cells pre-treated for 1 hr before LPS stimulation for 18 hrs by Western blot method; format: functional, cell-based
RAW264.7 [11] = assay: Inhibition of LPS-induced iNOS protein expression in mouse RAW264.7 cells pre-treated for 1 hr before LPS stimulation for 18 hrs by Western blot method; format: functional, cell-based
BV-2 [12] = assay: Inhibition of LPS-induced iNOS protein expression in mouse BV2 cells pre-treated for 1 hr before LPS stimulation for 18 hrs by Western blot method; format: functional, cell-based
BV-2 [13] = assay: Inhibition of LPS-induced PGE2 production in mouse BV2 cells pre-treated for 3 hrs before LPS stimulation for 24 hrs by ELISA; format: functional, cell-based

Cc1ccc2c(c1/C=C/C=C/C(=O)O)[C@H](C)C[C@@](C)(O)C2
inhibition [1]: 24.1%

C[C@@H]1C[C@@](C)(O)C[C@@H]2C=C[C@H](C)[C@H](/C=C/C=C/C(=O)O)[C@@H]12
inhibition [1]: inactive

Cc1ccc2c(c1/C=C\C=C\C(=O)O)[C@H](C)C[C@@](C)(O)C2
inhibition [1]: 27.3% | pIC50 (BV-2 [2]): 4.42

Cc1ccc2c(c1/C=C/C=C/C(=O)O)[C@H](C)C[C@H](C)C2
pIC50 (RAW264.7 [3]): 4.57 | pIC50 (RAW264.7 [4]): 4.80 | inhibition (BV-2 [5]): Dose-dependent effect | Activity [6]: Non-toxic | pIC50 (BV-2 [7]): 4.66 | pIC50 [8]: 5.09 | Activity (RAW264.7 [9]): Non-toxic | inhibition (RAW264.7 [10]): Dose-dependent effect | inhibition (RAW264.7 [11]): Dose-dependent effect | inhibition (BV-2 [12]): Dose-dependent effect | pIC50 (BV-2 [13]): 4.76 | pIC50 (BV-2 [2]): 5.15

C[C@H]1C[C@@H](C)[C@@H]2[C@@H](/C=C/C=C/C(=O)O)[C@@H](C)C=C[C@H]2C1
pIC50 [8]: 5.09 | pIC50 (BV-2 [2]): 4.37
